The record followed here is article PMC6934184, “Selective DNA-PKcs inhibition extends the therapeutic index of localized radiotherapy and chemotherapy” (The Journal of Clinical Investigation, 2019).

SMILES strings stand for the structures.

The assay addresses T1, PIM1 (Homo sapiens, UniProt P11309).
T1 construct: purchased Thermo Fisher Scientific (Life Technologies) SelectScreen
The assay is described as follows: SelectScreen Z'LYTE. The assay is classed as biochemical. In a few lines: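 SelectScreen broad panel; activity (Z'LYTE, Adapta) plus binding formats. ATP: Km app for CSF1R Z'LYTE; 10 for CAMK1 Adapta. Readout = % per kinase.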

T1 sequence (P11309 whole entry): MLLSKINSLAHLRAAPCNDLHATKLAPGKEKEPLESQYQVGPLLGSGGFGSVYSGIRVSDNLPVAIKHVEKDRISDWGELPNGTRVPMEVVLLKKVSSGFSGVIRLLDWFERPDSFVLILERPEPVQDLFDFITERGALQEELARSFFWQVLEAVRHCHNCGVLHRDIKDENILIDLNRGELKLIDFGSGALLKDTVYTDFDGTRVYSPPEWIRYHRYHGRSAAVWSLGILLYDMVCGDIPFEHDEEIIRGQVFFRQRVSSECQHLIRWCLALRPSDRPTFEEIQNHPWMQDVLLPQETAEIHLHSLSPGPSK

As a reminder, the inhibition is the relative decrease from the control value, in per cent. Take `CN(C(=O)CN1CCOCC1)c1ccc2sc3c(-c4cccc5c(=O)cc(N6CC7CCC(C6)O7)oc45)cccc3c2c1` [NU5455]: the inhibition at 1 µM was -1%.
